Reference: patent US20050107343A1, “Pyrrolopyrimidines and related analogs as HSP90-inhibitors” (Conforma Therapeutics Corporation, priority 2003, published 2005)

Columns and labels:
HER2/Neu protein = experiment: HER2 degradation assay; type: cell-based; conditions: Homo sapiens; 50% degradation of HER2/Neu protein, MCF7 cells, 16 h
Protocol: MCF7 breast carcinoma cells (ATCC) were grown in Dulbecco's modified Eagle's medium (DMEM) containing 10% fetal bovine serum (FBS) and 10 mM HEPES, and plated in 24 well plates (50% confluent). Twenty-four hrs later (cells are 65-70% confluent), test compounds were added and incubated overnight for 16 h. […] The wells were washed with 1 mL phosphate buffered saline (PBS), and 200 μL trypsin was added to each well. After trypsinization was complete, 50 μL of FBS was added to each well. Then 200 μL cells was transferred to 96 well plates. The cells were pipetted up and down to obtain a single cell suspension. The plates were centrifuged at 2,500 rpm for 1 min using a Sorvall Legend RT™ tabletop centrifuge (Kendro Laboratory Products, Asheville, N.C.). The cells were then washed once in PBS containing 0.2% BSA and 0.2% sodium azide (BA buffer). Phycoerythrin (PE) conjugated anti HER2/Neu antibody (Becton Dickinson, #340552), or PE conjugated anti-keyhole limpet hemocyanin [KLH] (Becton Dickinson, #340761) control antibody was added at a dilution of 1:20 and 1:40 respectively (final concentration was 1 μg/mL) and the cells were pipeted up and down to form a single cell suspension, and incubated for 15 mins. The cells were washed twice with 200 μL BA buffer, and resuspended in 200 μL BA buffer, and transferred to FACSCAN tubes with an additional 250 μL BA buffer. Samples were analyzed using a FACSCalibur™ flow cytometer (Becton Dickinson, San Jose, Calif.) equipped with Argon-ion laser that emits 15 mW of 488 nm light for excitation of the PE fluorochrome. 10,000 events were collected per sample. A fluorescence histogram was generated and the mean fluorescence intensity (MFI) of each sample was determined using Celiquest software. The background was defined as the MFI generated from cells incubated with control IgG-PE, and was subtracted from each sample stained with the HER2/Neu antibody. Cells incubated with DMSO were used as untreated controls since the compounds were resuspended in DMSO. Percent degradation of HER2 was calculated as follows: % HER2 degraded=[(MF1 untreated cells−MF1 treated cells)/MF1 untreated cell]×100
IC50 is defined as the concentration at which there was 50% degradation of the HER2/Neu protein.

[1] = test system: MCF7 breast carcinoma cells; experiment: MTS assay; type: cell-based; conditions: Homo sapiens, 50% reduction in viable cell number
Protocol: MTS assays measure the cytotoxicity of geldanamycin derivatives. MTS (3-(4,5-dimethylthiazol-2-yl)-5-(3-carboxymethoxyphenyl)-2-(4-sulfophenyl)-2H-tetrazolium) is a tetrazolium dye that is converted to a formazan product by dehydrogenase enzymes of metabolically active cells (Corey, A. et al. “Use of an aqueous soluble tetrazolium/formazan assay for cell growth assays in culture,” Cancer Commun. 1991, 3, 207-212). Cells were seeded in 96 well plates at 2000 cells/well and allowed to adhere overnight in Dulbecco's modified Eagle's medium supplemented with 10% fetal bovine serum. The final culture volume was 100 μl. Viable cell number was determined by using the Celltiter 96 AQueous Non-radioactive Cell Proliferation Assay (Promega, Madison Wis.). The MTS /PMS (phenazine methosulfate) solution was mixed at a ratio of 20:1, and 20 μL was added per well to 100 μl of culture medium. After 2-4 hours, the formation of the formazan product was measured at 490 nm absorbance using a multiwell plate spectrophotometer. Background was determined by measuring the Abs 490 nm of cell culture medium and MTS-PMS in the absence of cells and was subtracted from all values. Percent viable cells was calculated as follows: % viable cells=(Abs at 490 nm treated cells/Abs at 490 nm untreated cells)×100
The effect of selected compounds of the invention on MCF7 breast carcinoma cells according to the MTS assay is summarized in Table 2. IC50 was defined as the concentration of the compound which gave rise to 50% reduction in viable cell number.

[2] = test system: rHSP90 in the MCF7 cell lysates; experiment: Cell lysate binding assay; conditions: 50% inhibition of biotin-GM binding to rHSP90 in MCF7 cell lysates
Protocol: Cell Lysate Binding Assay
MCF7 breast carcinoma cell lysates were prepared by douncing in lysing buffer (20 mM HEPES, pH 7.3, 1 mM EDTA, 5 mM MgCl2, 100 mM KCl), and then incubated with or without test compound for 30 mins at 4° C., followed by incubation with biotin-GM linked to BioMag™ streptavidin magnetic beads (Qiagen) for 1 hr at 4° C. The tubes were placed on a magnetic rack, and the unbound supernatant removed. The magnetic beads were washed three times in lysis buffer and boiled for 5 mins at 95° C. in SDS-PAGE sample buffer. Samples were analyzed on SDS protein gels, and Western blots were done for rHSP90. Bands in the Western Blots were quantitated using the Bio-rad Fluor-S MultiImager, and the % inhibition of binding of rHSP90 to the biotin-GM was calculated.
The IC50 reported is the concentration of test compound needed to achieve 50% inhibition of the biotin-GM binding to rHSP90 in the MCF7 cell lysates.

With `COc1c(C)cnc(CN2C(=O)Cc3c(Cl)nc(N)nc32)c1C` the IC50 (HER2/Neu protein) was 450 nM.

With `COc1c(C)cnc(Cn2ccc3c(Cl)nc(N)nc32)c1C` [Example 5, 4-Chloro-7-(4-methoxy-3,5-dimethyl-pyridin-2-ylmethyl)-7H-pyrrolo[2,3-d]pyrimidin-2-ylamine] the IC50 (HER2/Neu protein) was 95 nM, the IC50 [1] was 300 nM and the IC50 [2] was 150 nM.

Work on `COc1c(C)c[n+]([O-])c(Cn2ccc3c(Cl)nc(N)nc32)c1C` [Example 8, 4-Chloro-7-(4-methoxy-3,5-dimethyl-1-oxy-pyridin-2-ylmethyl)-7H-pyrrolo[2,3-d]pyrimidin-2-ylamine] yielded an IC50 (HER2/Neu protein) of 23 nM and an IC50 [1] of 100 nM.

`COc1c(C)c(Cl)nc(Cn2ccc3c(Cl)nc(N)nc32)c1C` [Example 10, 4-Chloro-7-(6-chloro-4-methoxy-3,5-dimethyl-pyridin-2-ylmethyl)-7H-pyrrolo [2,3-d]pyrimidin-2-ylamine] gave an IC50 (HER2/Neu protein) of 250 nM and an IC50 [1] of 600 nM.

For `Cc1cnc(Cn2ccc3c(Cl)nc(N)nc32)c(C)c1Cl` [Example 11, 4-Chloro-7-(4-chloro-3,5-dimethyl-pyridin-2-ylmethyl)-7H-pyrrolo[2,3-d]pyrimidin-2-ylamine], the IC50 (HER2/Neu protein) was 80 nM, the IC50 [1] was 200 nM and the IC50 [2] was 90 nM.

Work on `Cc1cnc(Cn2ccc3c(Cl)nc(N)nc32)c(C)c1Br` [Example 13, 7-(4-Bromo-3,5-dimethyl-pyridin-2-ylmethyl)-4-chloro-7H-pyrrolo[2,3-d]pyrimidin-2-ylamine] yielded an IC50 (HER2/Neu protein) of 50 nM, an IC50 [1] of 1000 nM and an IC50 [2] of 90 nM.

`Cc1c[n+]([O-])c(Cn2ccc3c(Cl)nc(N)nc32)c(C)c1Cl` [Example 14, 4-Chloro-7-(4-chloro-3,5-dimethyl-1-oxy-pyridin-2-ylmethyl)-7H-pyrrolo[2,3-d]pyrimidin-2-ylamine] showed an IC50 (HER2/Neu protein) of 38 nM, an IC50 [1] of 1000 nM and an IC50 [2] of 50 nM.

Work on `Cc1c[n+]([O-])c(Cn2ccc3c(Cl)nc(N)nc32)c(C)c1Br` [Example 15, 7-(4-Bromo-3,5-dimethyl-1-oxy-pyridin-2-ylmethyl)-4-chloro-7H-pyrrolo[2,3-d]pyrimidin-2-ylamine] yielded an IC50 (HER2/Neu protein) of 15 nM, an IC50 [1] of 23 nM and an IC50 [2] of 30 nM.

Molecule `COc1c(C)c[n+]([O-])c(Cn2ccc3c(Br)nc(N)nc32)c1C` [Example 20, 4-Bromo-7-(4-methoxy-3,5-dimethyl-1-oxy-pyridin-2-ylmethyl)-7H-pyrrolo[2,3-d]pyrimidin-2-ylamine] has an IC50 (HER2/Neu protein) of 42 nM and an IC50 [1] of 1000 nM.

For `Cc1cnc(Cn2ccc3c(Br)nc(N)nc32)c(C)c1Cl` [Example 21, 4-Bromo-7-(4-chloro-3,5-dimethyl-pyridin-2-ylmethyl)-7H-pyrrolo[2,3-d]pyrimidin-2-ylamine], the IC50 (HER2/Neu protein) was 170 nM and the IC50 [1] was > 10000 nM.

Work on `Cc1c[n+]([O-])c(Cn2ccc3c(Br)nc(N)nc32)c(C)c1Cl` [Example 22, 4-Bromo-7-(4-chloro-3,5-dimethyl-1-oxy-pyridin-2-ylmethyl)-7H-pyrrolo[2,3-d]pyrimidin-2-ylamine] yielded an IC50 (HER2/Neu protein) of 65 nM and an IC50 [1] of 1000 nM.

With `Cc1cnc(Cn2ccc3c(Br)nc(N)nc32)c(C)c1Br` [Example 23, 4-Bromo-7-(4-bromo-3,5-dimethyl-pyridin-2-ylmethyl)-7H-pyrrolo[2,3-d]pyrimidin-2-ylamine] the IC50 (HER2/Neu protein) was 130 nM and the IC50 [1] was > 10000 nM.

`Cc1c[n+]([O-])c(Cn2ccc3c(Br)nc(N)nc32)c(C)c1Br` [Example 24, 4-Bromo-7-(4-bromo-3,5-dimethyl-1-oxy-pyridin-2-ylmethyl)-7H-pyrrolo[2,3-d]pyrimidin-2-ylamine] gave an IC50 (HER2/Neu protein) of 25 nM and an IC50 [1] of 300 nM.

In the case of `COc1c(C)cnc(Cn2ccc3c(Br)nc(N)nc32)c1C` [Example 25, 4-Bromo-7-(4-methoxy-3,5-dimethyl-pyridin-2-ylmethyl)-7H-pyrrolo[2,3-d]pyrimidin-2-ylamine], the IC50 (HER2/Neu protein) is reported as 150 nM and the IC50 [1] is reported as > 10000 nM.

With `COc1c(C)cnc(Cn2cc(C(C)C)c3c(Cl)nc(N)nc32)c1C` [Example 43, 4-Chloro-5-isopropyl-7-(4-methoxy-3,5-dimethyl-pyridin-2-ylmethyl)-7H-pyrrolo[2,3-d]pyrimidin-2-ylamine] the IC50 (HER2/Neu protein) was 130 nM.

`Cc1c[n+]([O-])c(Cn2cc(C(C)C)c3c(Cl)nc(N)nc32)c(C)c1Cl` [Example 45] gave an IC50 (HER2/Neu protein) of 20 nM.

Work on `Cc1cnc(CN2C(=O)Cc3c(Cl)nc(N)nc32)c(C)c1Cl` [Example 48, 2-Amino-4-chloro-7-(4-chloro-3,5-dimethyl-pyridin-2-ylmethyl)-5,7-dihydro-pyrrolo[2,3-d]pyrimidin-6-one] yielded an IC50 (HER2/Neu protein) of 1500 nM.

For `COc1c(C)c[n+]([O-])c(CN2C(=O)Cc3c(Cl)nc(N)nc32)c1C` [Example 49, 2-Amino-4-chloro-7-(3,5-dimethyl-4-methoxy-1-oxy-pyridin-2-ylmethyl)-5,7-dihydro-pyrrolo[2,3-d]pyrimidin-6-one], the IC50 (HER2/Neu protein) was 180 nM and the IC50 [1] was 900 nM.

For `COc1cc(CN2C(=O)Cc3c(Cl)nc(N)nc32)c(Br)c(OC)c1OC` [Example 52, 2-Amino-4-chloro-7-(2-bromo-3,4,5-trimethoxy-benzyl)-5,7-dihydro-pyrrolo[2,3-d]pyrimidin-6-one], the IC50 (HER2/Neu protein) was 400 nM and the IC50 [1] was 10000 nM.
